Values after ≈ are worked out from the molar mass of the structure shown. Read-outs that look alike come from different tables or passages of the source.
Legend:
[1] = tested on: gram-negative and gram-positive bacteria sensitive to the kanamycins; conditions: cited from earlier work
drug-resistant bacteria = conditions: cited from earlier work
[2] = tested on: Pseudomonas aeruginosa 99; experiment: MIC, serial dilution on nutrient agar; format: cell-based; conditions: read-out: Minimum Inhibitory Concentrations
[3] = tested on: Salmonella enteritidis 1891; experiment: MIC, serial dilution on nutrient agar; format: cell-based; conditions: Salmonella enterica, read-out: Minimum Inhibitory Concentrations
[4] = tested on: Bacillus cereus ATCC 10702; experiment: MIC, serial dilution on nutrient agar; format: cell-based; conditions: read-out: Minimum Inhibitory Concentrations
[5] = tested on: Bacillus subtilis PCI 219; experiment: MIC, serial dilution on nutrient agar; format: cell-based; conditions: read-out: Minimum Inhibitory Concentrations
Sarcina lutea PCI 1001 = experiment: MIC, serial dilution on nutrient agar; format: cell-based; conditions: Micrococcus luteus, read-out: Minimum Inhibitory Concentrations
[6] = tested on: Klebsiella pneumoniae 22 -3038; experiment: MIC, serial dilution on nutrient agar; format: cell-based; conditions: read-out: Minimum Inhibitory Concentrations
[7] = tested on: Staphylococcus aureus Smith; experiment: MIC, serial dilution on nutrient agar; format: cell-based; conditions: read-out: Minimum Inhibitory Concentrations
Escherichia coli NIHJ = experiment: MIC, serial dilution on nutrient agar; format: cell-based; conditions: read-out: Minimum Inhibitory Concentrations
[8] = tested on: Escherichia coli K-12 ML 1629; experiment: MIC, serial dilution on nutrient agar; format: cell-based; conditions: read-out: Minimum Inhibitory Concentrations
[9] = tested on: Staphylococcus aureus Terejima; experiment: MIC, serial dilution on nutrient agar; format: cell-based; conditions: read-out: Minimum Inhibitory Concentrations
[10] = tested on: Shigella dysenteriae JS 11910; experiment: MIC, serial dilution on nutrient agar; format: cell-based; conditions: JS11910, 18 h, read-out: Minimum Inhibitory Concentrations
[11] = tested on: Corynebacterium bovis 1810; experiment: MIC, serial dilution on nutrient agar; format: cell-based; conditions: read-out: Minimum Inhibitory Concentrations
[12] = tested on: Klebsiella pneumoniae PCI 602; experiment: MIC, serial dilution on nutrient agar; format: cell-based; conditions: read-out: Minimum Inhibitory Concentrations
Salmonella typhosa T-63 = experiment: MIC, serial dilution on nutrient agar; format: cell-based; conditions: Salmonella enterica, 18 h, read-out: Minimum Inhibitory Concentrations
[13] = tested on: Pseudomonas aeruginosa TI-13; experiment: MIC, serial dilution on nutrient agar; format: cell-based; conditions: read-out: Minimum Inhibitory Concentrations
[14] = tested on: Escherichia coli LA290 R55; experiment: MIC, serial dilution on nutrient agar; format: cell-based; conditions: LA290R55, 18 h, read-out: Minimum Inhibitory Concentrations
[15] = tested on: Pseudomonas aeruginosa No.12; experiment: MIC, serial dilution on nutrient agar; format: cell-based; conditions: Pseudomonas aeruginosa, NO.12, 18 h, read-out: Minimum Inhibitory Concentrations
[16] = tested on: Escherichia coli K-12 ML 1630; experiment: MIC, serial dilution on nutrient agar; format: cell-based; conditions: K12ML1630, 37°C, 18 hours, read-out: Minimum Inhibitory Concentrations
Experimental: (§1) The minimum inhibitory concentrations (mcg/ml) of 1,2'-di-N-[(S)-4-amino-2-hydroxybutyryl]-kanamycin B (abbreviated as 1,2'-AHB-KMB), 1,2'-di-N-[(S)-4-amino-2-hydroxybutyryl]-3',4'-dideoxykanamycin B (abbreviated as 1,2'-AHB-DKB), 1,2'-di-N-DL-isoseryl-3',4'-dideoxykanamycin B (abbreviated as 1,2'-IS-DKB) and 1,2'-di-N-DL-isoseryl-kanamycin B (abbreviated as 1,2'-IS-KMB) against various microorganisms were determined according to serial dilution method using nutrient agar medium at 37°C, the estimation being effected after 18 hours incubation. For comparison, the minimum inhibitory concentrations of kanamycin B (abbreviated as KMB) and 3',4'-dideoxykanamycin B (abbreviated as DKB) were also determined in the same manner as mentioned above.

Shigella sonnei JS 11746 = experiment: MIC, serial dilution on nutrient agar; format: cell-based; conditions: JS11746, 37°C, 18 hours, read-out: Minimum Inhibitory Concentrations
Experimental: as §1

[17] = tested on: Shigella flexneri 4b JS 11811; experiment: MIC, serial dilution on nutrient agar; format: cell-based; conditions: 4BJS11811, 37°C, 18 hours, read-out: Minimum Inhibitory Concentrations
Experimental: as §1

[18] = tested on: Escherichia coli JR66/W677; experiment: MIC, serial dilution on nutrient agar; format: cell-based; conditions: Escherichia coli, JR66/W677, 18 h, read-out: Minimum Inhibitory Concentrations
Escherichia coli W677 = experiment: MIC, serial dilution on nutrient agar; format: cell-based; conditions: read-out: Minimum Inhibitory Concentrations
[19] = tested on: Staphylococcus aureus FDA 209P; experiment: MIC, serial dilution on nutrient agar; format: cell-based; conditions: FDA209P, read-out: Minimum Inhibitory Concentrations
[20] = tested on: Pseudomonas aeruginosa A3; experiment: MIC, serial dilution on nutrient agar; format: cell-based; conditions: read-out: Minimum Inhibitory Concentrations
[21] = tested on: Escherichia coli K-12 ML 1410; experiment: MIC, serial dilution on nutrient agar; format: cell-based; conditions: read-out: Minimum Inhibitory Concentrations
[22] = tested on: Escherichia coli LA290 R64; experiment: MIC, serial dilution on nutrient agar; format: cell-based; conditions: LA290R64, 18 h, read-out: Minimum Inhibitory Concentrations
[23] = tested on: Mycobacterium smegmatis ATCC 607; experiment: MIC, serial dilution on nutrient agar; format: cell-based; conditions: Mycolicibacterium smegmatis, read-out: Minimum Inhibitory Concentrations
[24] = tested on: Bacillus subtilis NRRL B-558; experiment: MIC, serial dilution on nutrient agar; format: cell-based; conditions: read-out: Minimum Inhibitory Concentrations
[25] = tested on: Escherichia coli K-12 ML 1410 R81; experiment: MIC, serial dilution on nutrient agar; format: cell-based; conditions: 18 h, read-out: Minimum Inhibitory Concentrations
Proteus vulgaris OX 19 = experiment: MIC, serial dilution on nutrient agar; format: cell-based; conditions: read-out: Minimum Inhibitory Concentrations
Bacillus anthracis = experiment: microbe, parasite or virus in culture; format: cell-based; conditions: 18 h, read-out: Minimum Inhibitory Concentrations
[26] = tested on: Escherichia coli LA290 R56; experiment: MIC, serial dilution on nutrient agar; format: cell-based; conditions: LA290R56, 18 h, read-out: Minimum Inhibitory Concentrations
Escherichia coli K-12 = experiment: MIC, serial dilution on nutrient agar; format: cell-based; conditions: read-out: Minimum Inhibitory Concentrations
[27] = tested on: Pseudomonas aeruginosa GN315; experiment: MIC, serial dilution on nutrient agar; format: cell-based; conditions: read-out: Minimum Inhibitory Concentrations

NCC(O)C(=O)N[C@@H]1C[C@H](N)[C@@H](O[C@H]2O[C@H](CN)CC[C@H]2N)[C@H](O)[C@H]1O[C@H]1O[C@H](CO)[C@@H](O)[C@H](N)[C@H]1O (stereo partly shown) [1-N-isoseryl-3',4'-dideoxykanamycin B]
effectiveness against bacteria sensitive to the kanamycins [1]: effective | antibacterial activity against the drug-resistant bacteria (drug-resistant bacteria): effective

NCC[C@H](O)C(=O)N[C@@H]1CC[C@@H](CN)O[C@@H]1O[C@H]1[C@H](O)[C@@H](O[C@H]2O[C@H](CO)[C@@H](O)[C@H](N)[C@H]2O)[C@H](NC(=O)[C@@H](O)CCN)C[C@@H]1N [1,2'-AHB-DKB, 1,2'-di-N-[(S)-4-amino-2-hydroxybutyryl]-3',4'-dideoxykanamycin B]
MIC ([2]; Pseudomonas aeruginosa 99, nutrient agar, 37°C, 18 hours): 50 µg/mL (≈ 76.5 µM) | MIC ([3]; Salmonella enteritidis 1891, nutrient agar, 37°C, 18 hours): 1.56 µg/mL (≈ 2.39 µM) | MIC ([4]; ATCC10702, Bacillus cereus ATCC 10702, nutrient agar, 37°C, 18 hours): 1.56 µg/mL (≈ 2.39 µM) | MIC ([5]; PCI219, Bacillus subtilis PCI 219, nutrient agar, 37°C, 18 hours): < 0.2 µg/mL | MIC (Sarcina lutea PCI 1001; PCI1001, Sarcina lutea PCI 1001, nutrient agar, 37°C, 18 hours): 1.56 µg/mL (≈ 2.39 µM) | MIC ([6]; 223038, Klebsiella pneumoniae 22 -3038, nutrient agar, 37°C, 18 hours): 1.56 µg/mL (≈ 2.39 µM) | MIC ([7]; Staphylococcus aureus Smith, nutrient agar, 37°C, 18 hours): 0.2 µg/mL (≈ 0.306 µM) | MIC (Escherichia coli NIHJ; Escherichia coli NIHJ, nutrient agar, 37°C, 18 hours): 3.13 µg/mL (≈ 4.79 µM) | MIC ([8]; K12ML1629, Escherichia coli K-12 ML 1629, nutrient agar, 37°C, 18 hours): 3.13 µg/mL (≈ 4.79 µM) | MIC ([9]; Staphylococcus aureus Terejima, nutrient agar, 37°C, 18 hours): < 0.2 µg/mL | MIC [10]: 6.25 µg/mL (≈ 9.56 µM) | MIC ([11]; Corynebacterium bovis 1810, nutrient agar, 37°C, 18 hours): 0.78 µg/mL (≈ 1.19 µM) | MIC ([12]; PCI602, Klebsiella pneumoniae PCI 602, nutrient agar, 37°C, 18 hours): 0.78 µg/mL (≈ 1.19 µM) | MIC (Salmonella typhosa T-63): 0.78 µg/mL (≈ 1.19 µM) | MIC ([13]; TI13, Pseudomonas aeruginosa TI-13, nutrient agar, 37°C, 18 hours): 12.5 µg/mL (≈ 19.1 µM) | MIC [14]: 0.78 µg/mL (≈ 1.19 µM) | MIC [15]: 6.25 µg/mL (≈ 9.56 µM) | MIC [16]: 3.13 µg/mL (≈ 4.79 µM) | MIC (Shigella sonnei JS 11746): 6.25 µg/mL (≈ 9.56 µM) | MIC [17]: 6.25 µg/mL (≈ 9.56 µM) | MIC [18]: 6.25 µg/mL (≈ 9.56 µM) | MIC (Escherichia coli W677; Escherichia coli W677, nutrient agar, 37°C, 18 hours): 1.56 µg/mL (≈ 2.39 µM) | MIC ([19]; Staphylococcus aureus FDA 209P, nutrient agar, 37°C, 18 hours): 0.78 µg/mL (≈ 1.19 µM) | MIC ([20]; Pseudomonas aeruginosa A3, nutrient agar, 37°C, 18 hours): 25 µg/mL (≈ 38.2 µM) | MIC ([21]; K12ML1410, Escherichia coli K-12 ML 1410, nutrient agar, 37°C, 18 hours): 3.13 µg/mL (≈ 4.79 µM) | MIC [22]: 0.78 µg/mL (≈ 1.19 µM) | MIC ([23]; ATCC607, Mycobacterium smegmatis ATCC 607, nutrient agar, 37°C, 18 hours): 0.2 µg/mL (≈ 0.306 µM) | MIC ([24]; NRRLB558, Bacillus subtilis NRRL B-558, nutrient agar, 37°C, 18 hours): 0.2 µg/mL (≈ 0.306 µM) | MIC [25]: 1.56 µg/mL (≈ 2.39 µM) | MIC (Proteus vulgaris OX 19; OX19, Proteus vulgaris OX 19, nutrient agar, 37°C, 18 hours): 0.78 µg/mL (≈ 1.19 µM) | MIC (Bacillus anthracis): < 0.2 µg/mL | MIC [26]: 0.78 µg/mL (≈ 1.19 µM) | MIC (Escherichia coli K-12; K12, Escherichia coli K-12, nutrient agar, 37°C, 18 hours): 1.56 µg/mL (≈ 2.39 µM) | MIC ([27]; Pseudomonas aeruginosa GN315, nutrient agar, 37°C, 18 hours): 100 µg/mL (≈ 153 µM)

NC[C@H]1O[C@H](O[C@H]2[C@H](O)[C@@H](O[C@H]3O[C@H](CO)[C@@H](O)[C@H](N)[C@H]3O)[C@H](N)C[C@@H]2N)[C@H](N)[C@@H](O)[C@@H]1O [KMB, kanamycin B]
MIC ([2]; Pseudomonas aeruginosa, 99, 18 h): > 100 µg/mL | MIC ([3]; ENTERITIDIS, 18 h): 1.56 µg/mL (≈ 3.23 µM) | MIC ([4]; Bacillus cereus, ATCC10702, 18 h): 0.78 µg/mL (≈ 1.61 µM) | MIC ([5]; Bacillus subtilis, PCI219, 18 h): < 0.2 µg/mL | MIC (Sarcina lutea PCI 1001; PCI1001, 18 h): 1.56 µg/mL (≈ 3.23 µM) | MIC ([6]; Klebsiella pneumoniae, 223038, 18 h): > 100 µg/mL | MIC ([7]; Staphylococcus aureus, 18 h): 0.39 µg/mL (≈ 0.807 µM) | MIC (Escherichia coli NIHJ; Escherichia coli, 18 h): 0.78 µg/mL (≈ 1.61 µM) | MIC ([8]; Escherichia coli, K12ML1629, 18 h): > 100 µg/mL | MIC ([9]; Staphylococcus aureus, 18 h): < 0.2 µg/mL | MIC [10]: 3.13 µg/mL (≈ 6.47 µM) | MIC ([11]; Corynebacterium bovis, 1810, 18 h): 1.56 µg/mL (≈ 3.23 µM) | MIC ([12]; Klebsiella pneumoniae, PCI602, 18 h): 0.78 µg/mL (≈ 1.61 µM) | MIC (Salmonella typhosa T-63): 0.2 µg/mL (≈ 0.414 µM) | MIC ([13]; Pseudomonas aeruginosa, TI13, 18 h): 100 µg/mL (≈ 207 µM) | MIC [14]: 12.5 µg/mL (≈ 25.9 µM) | MIC [15]: 12.5 µg/mL (≈ 25.9 µM) | MIC [16]: > 100 µg/mL | MIC (Shigella sonnei JS 11746): 1.56 µg/mL (≈ 3.23 µM) | MIC [17]: 3.13 µg/mL (≈ 6.47 µM) | MIC [18]: > 100 µg/mL | MIC (Escherichia coli W677; Escherichia coli, W677, 18 h): 0.39 µg/mL (≈ 0.807 µM) | MIC ([19]; Staphylococcus aureus, 18 h): < 0.2 µg/mL | MIC ([20]; Pseudomonas aeruginosa, A3, 18 h): 50 µg/mL (≈ 103 µM) | MIC ([21]; Escherichia coli, K12ML1410, 18 h): 0.78 µg/mL (≈ 1.61 µM) | MIC [22]: 3.13 µg/mL (≈ 6.47 µM) | MIC ([23]; ATCC607, 18 h): 0.78 µg/mL (≈ 1.61 µM) | MIC ([24]; Bacillus subtilis, NRRLB558, 18 h): < 0.2 µg/mL | MIC [25]: > 100 µg/mL | MIC (Proteus vulgaris OX 19; Proteus vulgaris, OX19, 18 h): 0.78 µg/mL (≈ 1.61 µM) | MIC (Bacillus anthracis): < 0.2 µg/mL | MIC [26]: 3.13 µg/mL (≈ 6.47 µM) | MIC (Escherichia coli K-12; Escherichia coli, K12, 18 h): 0.78 µg/mL (≈ 1.61 µM) | MIC ([27]; Pseudomonas aeruginosa, GN315, 18 h): > 100 µg/mL
